In ChEMBL document CHEMBL1201862, “PubChem BioAssay data set” (2004):
Activity calls are given as the source filed them.

What was measured:
[1] = A cytotoxicity screen of small molecule inhibitors of the PhoP region in Salmonella typhi identified in the primary screen. [Related pubchem assays: 1850, 1864, 1985 ]; assay type: functional
ORF 73 = ORF 73 (Human herpesvirus 8, UniProt O40947); assay: KSHV LANA DNA-binding disruption – biochemical, fluorescence polarization, cherry-picked samples, dose response (AID 504725); design: species or system Human gammaherpesvirus 8;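 also: fluorescence polarization of a labeled DNA duplex reporting LANA DNA binding; potency is for inhibitors that block LANA binding to the DNA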
[2] = biological target: Induced myeloid leukemia cell differentiation protein Mcl-1 (Homo sapiens, UniProt Q07820); assay type: functional
Chain of Induced myeloid leukemia cell differentiation protein Mcl-1 (Q07820 whole entry): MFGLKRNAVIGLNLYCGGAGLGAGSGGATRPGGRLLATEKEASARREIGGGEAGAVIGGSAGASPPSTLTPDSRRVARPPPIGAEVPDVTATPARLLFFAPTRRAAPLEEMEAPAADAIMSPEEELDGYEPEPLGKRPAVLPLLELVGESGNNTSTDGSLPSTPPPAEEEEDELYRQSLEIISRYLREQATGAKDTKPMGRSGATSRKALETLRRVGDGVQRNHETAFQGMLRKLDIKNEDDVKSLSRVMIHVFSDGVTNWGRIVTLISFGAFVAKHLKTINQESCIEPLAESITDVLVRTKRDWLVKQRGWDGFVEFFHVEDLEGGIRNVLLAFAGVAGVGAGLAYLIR

[3] = biological target: Eukaryotic translation initiation factor 4E (Mus musculus, UniProt P63073); assay: blockers of eIF4G binding by eIF4E – biochemical, TR-FRET, dose response (AID 855); assay type: functional;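 also: potency for disrupting eIF4E binding to eIF4GI seen as loss of FRET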
Chain of Eukaryotic translation initiation factor 4E (P63073 whole entry): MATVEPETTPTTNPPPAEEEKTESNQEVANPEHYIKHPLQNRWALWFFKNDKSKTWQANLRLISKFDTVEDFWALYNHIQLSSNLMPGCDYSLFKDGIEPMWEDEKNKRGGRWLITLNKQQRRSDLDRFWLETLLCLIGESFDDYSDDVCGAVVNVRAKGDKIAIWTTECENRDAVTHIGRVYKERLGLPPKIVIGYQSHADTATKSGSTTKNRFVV

[4] = biological target: T1, Voltage-gated N-type calcium channel alpha-1B subunit/Amyloid beta A4 precursor protein-binding family A member 1 (Homo sapiens, UniProt Q00975+Q02410); assay type: protein assay
T1 sequence (Q00975 whole entry): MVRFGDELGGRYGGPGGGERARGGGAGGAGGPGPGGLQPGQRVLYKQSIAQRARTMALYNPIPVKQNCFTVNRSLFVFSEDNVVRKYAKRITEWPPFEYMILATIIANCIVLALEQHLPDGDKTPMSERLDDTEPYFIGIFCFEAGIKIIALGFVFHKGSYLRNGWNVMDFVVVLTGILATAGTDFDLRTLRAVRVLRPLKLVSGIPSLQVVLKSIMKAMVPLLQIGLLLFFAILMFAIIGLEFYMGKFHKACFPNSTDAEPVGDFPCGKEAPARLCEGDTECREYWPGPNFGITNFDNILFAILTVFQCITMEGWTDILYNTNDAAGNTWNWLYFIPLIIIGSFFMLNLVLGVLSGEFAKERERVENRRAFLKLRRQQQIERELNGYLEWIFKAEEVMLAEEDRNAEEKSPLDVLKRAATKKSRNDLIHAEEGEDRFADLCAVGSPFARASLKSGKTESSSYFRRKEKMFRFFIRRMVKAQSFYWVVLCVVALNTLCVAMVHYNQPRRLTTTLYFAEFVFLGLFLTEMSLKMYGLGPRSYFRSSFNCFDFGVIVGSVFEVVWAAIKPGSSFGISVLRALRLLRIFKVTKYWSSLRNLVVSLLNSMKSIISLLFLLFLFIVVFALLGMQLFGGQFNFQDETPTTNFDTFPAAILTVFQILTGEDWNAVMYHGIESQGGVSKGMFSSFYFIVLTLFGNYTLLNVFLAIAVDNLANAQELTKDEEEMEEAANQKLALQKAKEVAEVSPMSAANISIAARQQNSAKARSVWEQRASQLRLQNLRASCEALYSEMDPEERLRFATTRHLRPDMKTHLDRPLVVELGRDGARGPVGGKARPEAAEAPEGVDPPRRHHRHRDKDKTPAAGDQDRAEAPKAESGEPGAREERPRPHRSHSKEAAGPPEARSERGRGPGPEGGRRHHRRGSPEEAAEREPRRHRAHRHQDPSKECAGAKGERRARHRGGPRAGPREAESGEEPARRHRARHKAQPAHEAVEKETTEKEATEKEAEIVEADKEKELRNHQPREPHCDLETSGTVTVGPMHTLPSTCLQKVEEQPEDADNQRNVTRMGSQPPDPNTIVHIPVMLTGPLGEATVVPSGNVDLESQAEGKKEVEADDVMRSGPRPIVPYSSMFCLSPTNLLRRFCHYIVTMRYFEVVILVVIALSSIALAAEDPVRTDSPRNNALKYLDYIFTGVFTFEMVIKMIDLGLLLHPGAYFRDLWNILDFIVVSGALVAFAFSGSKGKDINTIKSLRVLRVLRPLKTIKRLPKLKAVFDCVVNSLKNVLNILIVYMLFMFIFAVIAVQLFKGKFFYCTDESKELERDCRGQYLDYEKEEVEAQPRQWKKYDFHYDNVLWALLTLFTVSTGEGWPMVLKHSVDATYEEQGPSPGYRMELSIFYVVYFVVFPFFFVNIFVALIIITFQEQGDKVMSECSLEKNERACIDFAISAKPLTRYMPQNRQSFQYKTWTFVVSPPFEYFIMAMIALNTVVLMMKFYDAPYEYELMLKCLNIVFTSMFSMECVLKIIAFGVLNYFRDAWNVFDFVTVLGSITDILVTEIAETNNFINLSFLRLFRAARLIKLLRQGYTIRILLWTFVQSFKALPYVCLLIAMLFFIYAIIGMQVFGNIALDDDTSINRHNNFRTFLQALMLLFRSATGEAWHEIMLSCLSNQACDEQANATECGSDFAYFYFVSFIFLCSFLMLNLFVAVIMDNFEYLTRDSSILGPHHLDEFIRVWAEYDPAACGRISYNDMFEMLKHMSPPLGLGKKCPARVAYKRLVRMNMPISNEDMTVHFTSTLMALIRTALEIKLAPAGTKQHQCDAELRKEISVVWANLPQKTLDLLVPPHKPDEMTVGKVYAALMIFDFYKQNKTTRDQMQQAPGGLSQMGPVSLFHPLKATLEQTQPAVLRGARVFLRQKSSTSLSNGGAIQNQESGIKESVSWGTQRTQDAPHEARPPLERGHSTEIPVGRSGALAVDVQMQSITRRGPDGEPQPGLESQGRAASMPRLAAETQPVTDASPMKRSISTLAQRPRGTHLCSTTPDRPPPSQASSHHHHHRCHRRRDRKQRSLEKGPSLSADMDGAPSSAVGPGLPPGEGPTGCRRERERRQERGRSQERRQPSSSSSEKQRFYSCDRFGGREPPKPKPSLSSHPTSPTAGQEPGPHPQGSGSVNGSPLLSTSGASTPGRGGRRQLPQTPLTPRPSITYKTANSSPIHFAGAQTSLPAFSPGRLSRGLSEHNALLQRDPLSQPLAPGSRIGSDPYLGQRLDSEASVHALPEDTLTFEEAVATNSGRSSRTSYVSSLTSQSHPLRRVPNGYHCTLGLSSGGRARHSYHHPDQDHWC
T1 sequence (Q02410 whole entry): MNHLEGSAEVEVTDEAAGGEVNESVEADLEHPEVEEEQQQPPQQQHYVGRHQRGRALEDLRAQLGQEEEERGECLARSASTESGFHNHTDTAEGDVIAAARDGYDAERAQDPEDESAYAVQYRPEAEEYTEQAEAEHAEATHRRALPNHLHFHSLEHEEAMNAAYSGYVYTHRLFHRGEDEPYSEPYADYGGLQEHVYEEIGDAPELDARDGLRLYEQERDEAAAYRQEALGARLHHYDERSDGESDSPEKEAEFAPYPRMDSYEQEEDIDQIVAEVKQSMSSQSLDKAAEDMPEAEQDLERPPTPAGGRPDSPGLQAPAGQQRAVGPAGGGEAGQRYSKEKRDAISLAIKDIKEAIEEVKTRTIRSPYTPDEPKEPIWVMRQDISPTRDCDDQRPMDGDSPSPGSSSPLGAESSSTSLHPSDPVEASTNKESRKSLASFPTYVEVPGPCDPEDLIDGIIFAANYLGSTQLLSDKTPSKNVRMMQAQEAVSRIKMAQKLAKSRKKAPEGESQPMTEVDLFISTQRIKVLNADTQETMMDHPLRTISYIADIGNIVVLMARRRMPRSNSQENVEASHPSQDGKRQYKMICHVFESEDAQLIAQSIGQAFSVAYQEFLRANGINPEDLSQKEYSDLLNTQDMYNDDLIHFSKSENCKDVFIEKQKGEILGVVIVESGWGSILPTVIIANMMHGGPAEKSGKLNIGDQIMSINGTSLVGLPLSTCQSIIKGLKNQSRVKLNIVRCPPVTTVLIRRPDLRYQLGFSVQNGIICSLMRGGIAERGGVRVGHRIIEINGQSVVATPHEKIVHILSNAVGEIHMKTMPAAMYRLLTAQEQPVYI

NS3 = NS3 (Hepatitis C virus, UniProt A3EZJ3); assay: PubChem AID 2173; design: species or system Hepacivirus hominis
[5] = antiviral protection against BTV-induced cell death – arbovirus, BSR cells, confirmation (AID 1250); assay type: functional;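 also: protection from viral cytopathic effect measured as cell viability by ATP luminescence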
[6] = biological target: T1, Voltage-gated N-type calcium channel alpha-1B subunit/Amyloid beta A4 precursor protein-binding family A member 1; assay type: protein assay; remark: listed apart in the source
Cytochrome P450 2C9 = Cytochrome P450 2C9 (Homo sapiens, UniProt P11712); settings: Potency
Chain of Cytochrome P450 2C9 (P11712 whole entry): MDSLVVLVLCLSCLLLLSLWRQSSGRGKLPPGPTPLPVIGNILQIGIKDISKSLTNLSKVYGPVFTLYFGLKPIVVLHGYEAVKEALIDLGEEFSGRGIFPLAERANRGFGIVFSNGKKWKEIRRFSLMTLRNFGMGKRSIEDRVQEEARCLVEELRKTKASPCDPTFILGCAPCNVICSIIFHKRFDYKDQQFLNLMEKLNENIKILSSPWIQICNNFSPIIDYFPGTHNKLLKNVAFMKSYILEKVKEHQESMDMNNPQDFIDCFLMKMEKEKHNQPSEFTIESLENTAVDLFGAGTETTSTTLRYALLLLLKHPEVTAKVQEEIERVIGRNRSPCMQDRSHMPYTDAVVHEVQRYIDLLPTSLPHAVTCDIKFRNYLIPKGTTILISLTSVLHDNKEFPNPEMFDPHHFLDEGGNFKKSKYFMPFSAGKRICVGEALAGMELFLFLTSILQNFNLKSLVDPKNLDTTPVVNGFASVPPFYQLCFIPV

Cytochrome P450 2C19 = Cytochrome P450 2C19 (Homo sapiens, UniProt P33261); assay: qHTS Assay for Inhibitors and Substrates of Cytochrome P450 2C19. [Related pubchem assays: 410 ]; assay type: ADME; settings: read-out: Potency
Cytochrome P450 3A4 = Cytochrome P450 3A4 (Homo sapiens, UniProt P08684); settings: Potency;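 also: confirmatory qHTS run detecting inhibitors and substrates of CYP3A4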
[7] = biological target: Melanin-concentrating hormone receptor 1 (Homo sapiens, UniProt Q99705); assay: Fluorescence-based counterscreen for antagonists of the G-protein coupled receptor 7 (GPR7): cell-based high throughput dose response assay to identify antagonists of the melanin-concentrating hormone receptor 1 (MCHR1).; assay type: functional
[8] = Counterscreen for activators of the function of SWI/SNF related, matrix associated, actin dependent regulator of chromatin, subfamily a, member 2 (SMARCA2, BRM): Luminescence-based cell-based high throughput dose response assay to identify non-selective compounds using the VP16 reporter assay.; assay type: functional
[9] = biological target: T2, DNA repair and recombination protein RAD54-like (Homo sapiens, UniProt Q92698); assay: RAD54 Holliday junction migration blockers – biochemical, fluorescence, cherry-picked samples, dose series, confirmation (AID 651657); assay type: functional
T2 sequence (Q92698 whole entry): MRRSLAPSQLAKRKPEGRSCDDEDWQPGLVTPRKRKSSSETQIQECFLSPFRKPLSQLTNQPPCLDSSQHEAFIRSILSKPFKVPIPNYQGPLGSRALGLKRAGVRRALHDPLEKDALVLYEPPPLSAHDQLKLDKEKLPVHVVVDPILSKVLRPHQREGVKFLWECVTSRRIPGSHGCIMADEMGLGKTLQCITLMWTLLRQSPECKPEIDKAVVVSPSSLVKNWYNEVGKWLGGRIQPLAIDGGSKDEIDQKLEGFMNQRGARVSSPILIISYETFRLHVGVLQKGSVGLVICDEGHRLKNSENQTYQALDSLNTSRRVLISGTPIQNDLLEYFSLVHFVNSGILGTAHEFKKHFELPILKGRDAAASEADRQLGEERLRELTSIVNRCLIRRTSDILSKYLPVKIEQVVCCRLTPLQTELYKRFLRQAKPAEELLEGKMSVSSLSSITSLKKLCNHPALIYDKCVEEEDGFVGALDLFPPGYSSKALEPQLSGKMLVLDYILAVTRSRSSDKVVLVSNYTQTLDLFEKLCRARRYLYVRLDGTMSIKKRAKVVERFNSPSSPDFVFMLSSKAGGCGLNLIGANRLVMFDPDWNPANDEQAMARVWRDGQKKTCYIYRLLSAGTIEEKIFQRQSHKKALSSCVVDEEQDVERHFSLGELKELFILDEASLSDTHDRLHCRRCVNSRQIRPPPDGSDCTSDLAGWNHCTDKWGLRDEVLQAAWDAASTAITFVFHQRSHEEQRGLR

Beta Lactamase = Beta Lactamase (Pseudomonas aeruginosa, UniProt Q932Y6); assay: BLA reporter interference, concentration series – BLA reporter cells, FRET fluorescence, artefact control for TLR9-MyD88 binding inhibitor project, dose response (AID 588341); assay type: cell-based;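 also: cell based assay in CHO-K1 cells stably expressing beta-lactamase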
Paired box protein Pax-8 = Paired box protein Pax-8 (Homo sapiens, UniProt Q06710); assay: PAX8 transcriptional activity inhibition in RMG-I – RMG-I cells, luciferase, cherry-pick, dose response (AID 687027); assay type: functional, cell-based;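 also: luciferase reporter driven by Pax8 target thyroperoxidase promoter measured by SteadyGlo luminescence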
[10] = biological target: Neurotensin receptor type 1 (Homo sapiens, UniProt P30989); assay type: functional;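 also: Image-based confirmatory dose-response assay measuring agonist activity at NTR1; NTR1-expressing U2OS osteosarcoma cells imaged for beta-arrestin GFP spot formation; agonist potency where compounds increase beta-arrestin recruitment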
Chain of Neurotensin receptor type 1 (P30989 whole entry): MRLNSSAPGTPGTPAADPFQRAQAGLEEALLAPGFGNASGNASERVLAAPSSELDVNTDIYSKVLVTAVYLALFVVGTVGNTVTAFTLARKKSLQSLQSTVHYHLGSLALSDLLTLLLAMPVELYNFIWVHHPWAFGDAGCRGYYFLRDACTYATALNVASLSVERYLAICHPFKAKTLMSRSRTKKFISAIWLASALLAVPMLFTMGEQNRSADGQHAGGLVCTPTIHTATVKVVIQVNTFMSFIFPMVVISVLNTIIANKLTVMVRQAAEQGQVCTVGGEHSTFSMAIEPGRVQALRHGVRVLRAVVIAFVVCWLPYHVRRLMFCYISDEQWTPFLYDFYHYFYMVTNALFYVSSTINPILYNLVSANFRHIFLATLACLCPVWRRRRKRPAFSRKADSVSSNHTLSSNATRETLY

[11] = general cell-killing toxicity readout – plate reader, dry powder samples, cytotoxicity control for PAX8 inhibitor project, dose response (AID 743021); assay type: functional, cell-based
[12] = cytotoxicity toward MDA-MB-231 breast cancer cells – cell-based, CellTiter-Glo luminescence, cherry-pick, cytotoxicity control for RAD54 inhibitor project, dose response (AID 651692); assay type: functional
INS1 = assay: INS-1E survival protection against cytokine death – cell-based, luminescence, retest, dose response (AID 449756); assay type: functional; settings: Rattus norvegicus;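 also: cell death triggered by IL-1 beta plus TNF-alpha plus IFN-gamma mixture; protective hits raise ATP signal compared with cytokine alone wells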
[13] = biological target: SWI/SNF-related matrix-associated actin-dependent regulator of chromatin subfamily A member 2 (Homo sapiens, UniProt P51531); assay: Luminescence-based cell-based high throughput dose response assay to identify activators of the function of SWI/SNF related, matrix associated, actin dependent regulator of chromatin, subfamily a, member 2 (SMARCA2, BRM).; assay type: functional
CHO = CHO cell viability loss, potency – luminescence, cytotoxicity control for TLR9-MyD88 binding inhibitor project, dose response (AID 588339); assay type: functional, cell-based, hamster; settings: Cricetulus griseus;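 also: CHO cells stably coexpressing TLR9 and MyD88 fusions from primary screen; compound exposure lasted 48 hours before viability readout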
HeLa = assay: viability loss in HeLa cells – cell-based, 24 h, cherry-picked samples, cytotoxicity control, dose response (AID 504726); assay type: functional; settings: Homo sapiens
[14] = biological target: DNA dC->dU-editing enzyme APOBEC-3A (Homo sapiens, UniProt P31941); assay: A3A deaminase inhibition for selectivity – biochemical, dose response (AID 504722); assay type: functional
Chain of DNA dC->dU-editing enzyme APOBEC-3A (P31941 whole entry): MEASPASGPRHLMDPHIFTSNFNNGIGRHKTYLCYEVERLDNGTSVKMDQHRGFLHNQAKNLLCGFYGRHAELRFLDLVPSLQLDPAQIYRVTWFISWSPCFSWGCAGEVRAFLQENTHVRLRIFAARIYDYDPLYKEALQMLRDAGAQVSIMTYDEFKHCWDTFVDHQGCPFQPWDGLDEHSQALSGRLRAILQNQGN

[15] = biological target: DNA dC->dU-editing enzyme APOBEC-3G (Homo sapiens, UniProt Q9HC16); assay: Dose Response confirmation of small molecule APOBEC3G DNA Deaminase Inhibitors via a fluorescence-based single-stranded DNA deaminase assay. [Related pubchem assays (depositor defined):AID493012, AID493028]; assay type: functional

In the case of NC1=NC2(CCCCC2)n2c(nc3ccccc32)N1, the EC50 [1] is reported as > 50 µM (active).

For O=c1ccc2cc3c4c(c2o1)CCCN4CCC3, the AC50 (ORF 73) was 12.6 µM (active).

In the case of Cc1ccc(-n2cccc2/C=C2\C(=N)N3N=C(c4ccco4)SC3=NC2=O)cc1, the IC50 [2] is reported as 1.7 µM (active), the IC50 [3] is reported as 50 µM (inactive) and the IC50 [4] is reported as 8.99 µM (active). The IC50 (NS3) was 5.31 µM (active), the IC50 [5] was 26 µM (active) and the IC50 [6] was > 50 µM (inactive).

With CC(=O)c1ccc(OCc2ccccc2)c(C)c1O the AC50 (Cytochrome P450 2C9) was 2 µM (inconclusive).

With COc1ccc(OC2C=CC(C#Cc3ccc(C(C)(C)C)cc3)OC2CO)cc1 (configuration not stated) the AC50 (Cytochrome P450 2C9) was 0.398 µM (inconclusive), the AC50 (Cytochrome P450 2C19) was 2.51 µM (inconclusive) and the AC50 (Cytochrome P450 3A4) was 3.98 µM (inconclusive).

With COc1cccc(CC2(CO)CCCN(Cc3c(C)cc(C)cc3-n3cccn3)C2)c1 (configuration not stated) the IC50 [7] was 12.6 µM (not active).

With COc1ccc(Cn2cc3c(-c4ccc(F)cc4)nnc-3c3cc(OC)c(OC)cc32)cc1 the EC50 [8] was > 91.2 µM (inactive), the AC50 [9] was 7.21 µM (active) and the IC50 (Beta Lactamase) was 5.58 µM (active). For the same compound, the AC50 (Paired box protein Pax-8) was 12.9 µM (active), the EC50 [10] was 5.72 µM (active) and the AC50 [11] was 29.5 µM (active). For the same compound, the AC50 [12] was 15.3 µM (active), the AC50 (INS1) was 6.94 µM (active) and the EC50 [13] was > 91.2 µM (inactive). The IC50 (CHO) was 11.9 µM (inactive).

For O=S(=O)(Nc1ncccn1)c1ccc(NC(=S)Nc2cccc(Cl)c2)cc1, the EC50 [1] was > 50 µM (active).

In the case of CC(Sc1ncccn1)C(=O)NNC(=O)c1cccc(Cl)c1 (configuration not stated), the AC50 (HeLa) is reported as 46.6 µM (active).

In the case of Sc1nnc(-c2cccnc2)n1/N=C/C=C/c1ccccc1, the IC50 [14] is reported as > 100 µM (inactive) and the IC50 [15] is reported as 2.33 µM (active).
